In patent US20170020909A1, “METHODS OF TREATING GLAUCOMA USING AMP-ACTIVATED PROTEIN KINASE (AMPK) ACTIVATORS” (Massachusetts Eye and Ear Infirmary, priority 2014, published 2017):

System: collagen IV
Test: Immunoblot of collagen IV in conditioned media of human TM cells
Assay type: cell-based
Conditions: 24 hours
Procedure: FIGS. 5A-E. AICAR suppresses ECM proteins in primary human TM cells under basal and TGF-β2 stimulatory conditions. (A) Representative immunoblots of ECM proteins from conditioned media (CM) of human TM cells treated for 24 hours with PBS vehicle or 0.5 mM AICAR and (B) integrated band intensities calculated from those immunoblots. (C) Representative immunoblots of ECM proteins from CM of human TM cells under stimulation with 2.5 ng/mL TGF-β2. Cells were pre-incubated for 1 hour with PBS or 0.5 mM AICAR prior to full 24-hour treatment. (D) Mean integrated band intensities. Data in panels B and D are expressed as mean±SEM (*p<0.05 vs. PBS vehicle by student t-test; n=5-7). (E) Representative 10% acrylamide gels stained with Coomassie Brilliant Blue as a loading control. […]
At the conclusion of each experiment for matricellular and ECM protein detection, conditioned media (CM) from TM cell cultures was harvested and centrifuged at 5000 rpm for 10 minutes at 4° C. The supernatant was then concentrated (Amicon Ultra-4 Filter Unit, 10 kDa; Millipore, Milford, Mass.), and protein content quantified using the DC Protein Assay kit adhering to manufacturer's protocols (Bio-Rad, Hercules, Calif.). […] Samples were then centrifuged at 14,000 rpm for 15 minutes at 4° C. and protein content quantified. […]

## NC(=O)c1ncn([C@@H]2O[C@H](CO)[C@@H](O)[C@H]2O)c1N [AICAR, 5-Aminoimidazole-4-carboxamide riboside]
0.5 mM AICAR vs PBS vehicle, basal
  decrease in collagen IV (mean integrated band intensity): 52%
0.5 mM AICAR, under TGF-β2 stimulation with 2.5 ng/mL
  decrease in collagen IV level: 34%
